A word on the EC50: it is the concentration at which the effect is half-maximal. The low end stands for an effect from little substance, the high end for a need for much substance. What is called DC50 is the midpoint of the concentration-degradation curve.

The results in this text go back to patent US20250320206A1, “STAT6 DEGRADERS” (Gilead Sciences, Inc., priority 2024, published 2025).

The subject of assay [1] is Eotaxin-3 release in human whole blood stimulated with IL-4. Kind of assay: Human Whole Blood Eotaxin-3 Assay (IL-4 stimulated eotaxin-3 release). It counts as cell-based. The conditions noted are these: IL-4 stimulation, 48 h, values given for compounds with >80% Emax, geometric mean. The method, boiled down: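 Eotaxin-3 (CCL26) release measured by MSD kit in plasma supernatant after 48 h IL-4 stimulation ([…]) of human whole blood. Compounds added in triplicate 4-fold dilutions 2 h before stimulation; 0.5% DMSO final, 37° C, 5% CO2.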

In a further assay the target is T1, STAT6 (Homo sapiens, UniProt P42226).
T1 construct: These cells express endogenous STAT6; host or cells: HeLa LgBiT clone 4.14
T1 sequence (P42226 1-847): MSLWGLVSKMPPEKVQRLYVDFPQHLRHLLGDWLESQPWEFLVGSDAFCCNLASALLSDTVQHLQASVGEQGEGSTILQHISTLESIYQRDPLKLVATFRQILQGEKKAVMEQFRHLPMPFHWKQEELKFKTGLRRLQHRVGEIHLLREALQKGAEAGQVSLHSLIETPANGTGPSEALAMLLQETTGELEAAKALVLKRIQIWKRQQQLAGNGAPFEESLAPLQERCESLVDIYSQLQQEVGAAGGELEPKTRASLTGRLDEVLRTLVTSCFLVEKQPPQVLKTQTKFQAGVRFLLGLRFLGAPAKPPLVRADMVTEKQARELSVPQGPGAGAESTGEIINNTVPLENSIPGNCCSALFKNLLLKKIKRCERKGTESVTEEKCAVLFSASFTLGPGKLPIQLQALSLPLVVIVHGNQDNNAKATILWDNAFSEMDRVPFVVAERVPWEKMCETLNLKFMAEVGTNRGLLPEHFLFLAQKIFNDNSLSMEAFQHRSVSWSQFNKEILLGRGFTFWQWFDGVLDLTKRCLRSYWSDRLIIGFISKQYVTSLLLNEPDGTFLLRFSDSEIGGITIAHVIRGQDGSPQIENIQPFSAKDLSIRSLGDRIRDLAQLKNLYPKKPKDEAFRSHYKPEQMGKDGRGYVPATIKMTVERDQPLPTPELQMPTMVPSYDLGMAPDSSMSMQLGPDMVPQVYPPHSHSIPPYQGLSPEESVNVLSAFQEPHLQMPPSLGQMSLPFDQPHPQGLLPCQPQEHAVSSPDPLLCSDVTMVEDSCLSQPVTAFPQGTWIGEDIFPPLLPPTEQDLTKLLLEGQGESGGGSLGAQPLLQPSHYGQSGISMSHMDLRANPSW
As to the kind of experiment: Stat6 Degrader Assay (HiBiT based, HeLa LgBiT clone 4.14). It counts as cell-based. The conditions noted are these: HeLa LgBiT clone 4.14 HiBiT-STAT6, 4-24 h incubation; values given for compounds with >80% Emax; geometric mean; read-out: STAT6 degradation DC50. In outline:
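Luminescence from HiBiT-STAT6 complementing stably expressed LgBiT in HeLa clone 4.14 reports remaining STAT6 protein. Cells (5000/well) exposed to compound for 4-24 h at 37° C; read 0.5 h after Nano-Glo addition. 100% degradation window set with 50 μM terfenadine; percent degradation plotted against concentration.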
On the technique in general: HiBiT is a short tag that completes a luciferase, so light tracks the accessible tagged protein.

In assay [1], `CNc1ccn(-c2ccnc3c2cc(CN2CC=C(c4c(C)cc(C(=O)N5CCC(CN6CCN(Cc7ccc8c(c7)n(C)c(=O)n8[C@@H]7CCC(=O)NC7=O)CC6)CC5)cc4F)CC2)n3C)c(=O)c1` (single isomer, unassigned) [Example 3u162] showed an EC50 of 2.3 nM. Also, at STAT6, the DC50 stood at 3.3 nM.
Taken in the same sequence, the figures for `CNc1ccn(-c2ccnc3c2cc(CN2CCC(c4c(F)cc(C(=O)N5CCC(CN6CCN(Cc7ccc8c(c7)n(C)c(=O)n8C7CCC(=O)NC7=O)C[C@@H]6C)CC5)cc4F)CC2)n3C)c(=O)c1` (stereo partly drawn) [Example 3u19, 3-(5-(((S)-4-((1-(3,5-difluoro-4-(1-((1-methyl-4-(4-(methylamino)-2-oxopyridin-1 (2H)-yl)-1H-pyrrolo[2,3-b]pyridin-2-yl)methyl)piperidin-4-yl)benzoyl)piperidin-4-yl)methyl)-3-methyl-piperazin-1-yl)methyl)-3-methyl-2-oxo-2,3-dihydro-1H-benzo[d]imidazol-1-yl)piperidine-2,6-dione] were 0.3 nM and 0.7 nM.
Taken in the same sequence, the figures for `C[C@H]1CN(Cc2ccc3c(c2)n(C2CC2)c(=O)n3C2CCC(=O)NC2=O)CCN1CC1CCN(C(=O)c2cc(F)c(C3CCN([C@@H](C)c4cc5c(-n6ccc7c(c6=O)CCN7)ccnc5n4C)CC3)c(F)c2)CC1` (stereo partly drawn) [Example 3u196, 3-(3-cyclopropyl-5-(((S)-4-((1-(3,5-difluoro-4-(1-((S)-1-(1-methyl-4-(4-oxo-1,2,3,4-tetrahydro-5H-pyrrolo[3,2-c]pyridin-5-yl)-1H-pyrrolo[2,3-b]pyridin-2-yl)ethyl)piperidin-4-yl)benzoyl)-piperidin-4-yl)methyl)-3-methylpiperazin-1-yl)methyl)-2-oxo-2,3-dihydro-1H-benzo[d]imidazol-1-yl)-piperidine-2,6-dione] were 0.5 nM and 0.3 nM.
For the compound `CNc1cc(=O)n(-c2ccnc3c2cc([C@H](C)N2CC=C(c4c(C)cc(C(=O)N(C)c5ccc(N6CCN(Cc7ccc8c(c7)n(C)c(=O)n8C7CCC(=O)NC7=O)CC6)nc5)cc4F)CC2)n3C)cc1F` (stereo partly drawn) [Example 3u237, N-(6-(4-((1-(2,6-dioxopiperidin-3-yl)-3-methyl-2-oxo-2,3-dihydro-1H-benzo[d]-imidazol-5-yl)methyl)piperazin-1-yl)pyridin-3-yl)-3-fluoro-4-(1-((S)-1-(4-(5-fluoro-4-(methylamino)-2-oxopyridin-1 (2H)-yl)-1-methyl-1H-pyrrolo[2,3-b]pyridin-2-yl)ethyl)-1,2,3,6-tetrahydropyridin-4-yl)-N,5-dimethylbenzamide], a half-maximal effect in assay [1] (EC50) was put at 1.7 nM. The DC50 on STAT6 was determined as 0.1 nM.
Taken in the same sequence, the figures for `Cc1cc(C(=O)N2CCC(CN3CCN(Cc4ccc5c(c4)n(C)c(=O)n5C4CCC(=O)NC4=O)C[C@@H]3C)CC2)cc(F)c1C1=CCN([C@@H](C)c2cc3c(-n4ccc5c(c4=O)CCN5)ccnc3n2C)CC1` (stereo partly drawn) [Example 3u137, 3-(5-(((S)-4-((1-(3-fluoro-5-methyl-4-(1-((S)-1-(1-methyl-4-(4-oxo-1,2,3,4-tetrahydro-5H-pyrrolo[3,2-c]pyridin-5-yl)-1H-pyrrolo[2,3-b]pyridin-2-yl)ethyl)-1,2,3,6-tetrahydropyridin-4-yl)benzoyl)piperidin-4-yl)methyl)-3-methylpiperazin-1-yl)methyl)-3-methyl-2-oxo-2,3-dihydro-1H-benzo[d]imidazol-1-yl)piperidine-2,6-dione] were 0.4 nM and 0.2 nM.
`CNc1ccn(-c2ccnc3c2cc([C@H](C)N2CCC(c4ccc(C(=O)N5CCC(CN6CCN(Cc7ccc8c(c7)n(C)c(=O)n8C7CCC(=O)NC7=O)C[C@@H]6C)CC5)cc4)CC2)n3C)c(=O)c1` (stereo partly drawn) [Example 3e39, 3-(3-methyl-5-(((S)-3-methyl-4-((1-(4-(1-((S)-1-(1-methyl-4-(4-(methylamino)-2-oxopyridin-1 (2H)-yl)-1H-pyrrolo[2,3-b]pyridin-2-yl)ethyl)piperidin-4-yl)benzoyl)piperidin-4-yl)methyl)piperazin-1-yl)methyl)-2-oxo-2,3-dihydro-1H-benzo[d]imidazol-1-yl)piperidine-2,6-dione] yielded a half-maximal effective concentration (EC50) in assay [1] of 0.5 nM. Besides, on STAT6, the DC50 is 0.5 nM.
In turn, `CNc1ccn(-c2ccnc3c2cc(CN2CC=C(c4c(F)cc(C(=O)N5CCC(CN6CCN(Cc7ccc8c(c7)n(C7CC7)c(=O)n8[C@H]7CCC(=O)NC7=O)C[C@@H]6C)CC5)cc4F)CC2)n3C)c(=O)c1` (single isomer, unassigned) [Example 3u72] registered an EC50 in assay [1] of 1.9 nM. Besides, the DC50 at STAT6 was found to be 4.5 nM.
Taken in the same sequence, the figures for `CNc1ccn(-c2ccnc3c2cc(CN2CCC(c4c(F)cc(C(=O)N5CCC(CN6CCN(Cc7ccc8c(c7)C(C)(C)C(=O)N8[C@H]7CCC(=O)NC7=O)C[C@@H]6C)CC5)cc4F)CC2)n3C)c(=O)c1` (single isomer, unassigned) [Example 3u205] were 5.9 nM and 3 nM.
For the compound `CNc1cc(=O)n(-c2ccnc3c2cc([C@H](C)N2CC=C(c4c(C)cc(C(=O)N5CCC(CN6CCN(Cc7ccc8c(c7)C7(CC7)C(=O)N8[C@@H]7CCC(=O)NC7=O)C[C@@H]6C)CC5)cc4F)CC2)n3C)cc1F` (single isomer, unassigned) [Example 3u100], the concentration giving a half-maximal response (EC50) in assay [1] turned out to be 3.1 nM. The 50% degradation concentration (DC50) on STAT6 is 1.7 nM.
With `CNc1cc(=O)n(-c2ccnc3c2cc([C@H](C)N2CC=C(c4c(C)cc(C(=O)N5CC=C(CC6CCN(c7ccc8c(c7)C7(CC7)C(=O)N8C7CCC(=O)NC7=O)CC6)CC5)cc4F)CC2)n3C)cc1F` (stereo partly drawn) [Example 3u20, 3-(5′-(4-((1-(3-fluoro-4-(1-((S)-1-(4-(5-fluoro-4-(methylamino)-2-oxopyridin-1 (2H)-yl)-1-methyl-1H-pyrrolo[2,3-b]pyridin-2-yl)ethyl)-1,2,3,6-tetrahydropyridin-4-yl)-5-methyl-benzoyl)-1,2,3,6-tetrahydropyridin-4-yl)methyl)piperidin-1-yl)-2′-oxospiro[cyclopropane-1,3′-indolin]-1′-yl)piperidine-2,6-dione], the half-maximal effective concentration (EC50) in assay [1] is 11.7 nM. On STAT6, the DC50 is 4.7 nM.
For `CNc1cc(=O)n(-c2ccnc3c2cc(CN2CCC(c4c(F)cc(C(=O)N5CCC(CN6CCN(Cc7ccc8c(c7)C7(CC7)C(=O)N8[C@H]7CCC(=O)NC7=O)C[C@@H]6C)CC5)cc4F)CC2)n3C)cc1F` (single isomer, unassigned) [Example 3u220], the EC50 in assay [1] is 2.4 nM. Moreover, the DC50 at STAT6 came out at 1.3 nM.
In assay [1], `CNc1cc(=O)n(-c2ccnc3c2cc([C@H](C)N2CCC(c4ccc(C(=O)N5CCC(CN6CCN(Cc7ccc8c(c7)C7(CC7)C(=O)N8[C@H]7CCC(=O)NC7=O)C[C@@H]6C)CC5)cc4)CC2)n3C)cc1F` (single isomer, unassigned) [Example 3u37] returned an EC50 of 1.7 nM. For the same compound, the half-maximal degradation concentration (DC50) at STAT6 was determined as 0.5 nM.
For `CNc1ccn(-c2ccnc3c2cc(CN2CCC(c4c(F)cc(C(=O)N5CCC(CN6CCN(Cc7ccc8c(c7)C(C)(C)C(=O)N8[C@@H]7CCC(=O)NC7=O)CC6)CC5)cc4F)CC2)n3C)c(=O)c1` (single isomer, unassigned) [Example 3u18], a half-maximal response in assay [1] (EC50) required 18.6 nM. In addition, at STAT6, the 50% degradation concentration (DC50) stood at 8.4 nM.
On the same counts, the results for `CNc1ccn(-c2ccnc3c2cc([C@H](C)N2CC=C(c4c(C)cc(C(=O)N5CCC(CN6CCN(c7ccc8c(c7)n(C)c(=O)n8[C@@H]7CCC(=O)NC7=O)CC6)CC5)cc4F)CC2)n3C)c(=O)c1` (single isomer, unassigned) [Example 3u294] are 0.3 nM and 0.8 nM.
On the same counts, the results for `CNc1cc(=O)n(-c2ccnc3c2cc([C@H](C)N2CC=C(c4c(C)cc(C(=O)N(C)c5ccc(C6CCN(Cc7ccc8c(c7)C(C)(C)C(=O)N8[C@@H]7CCC(=O)NC7=O)CC6)cc5)cc4F)CC2)n3C)cc1F` (single isomer, unassigned) [Example 3u235] are 1.4 nM and 0.1 nM.
